# From patent US11535597B2, “Photoreactive ligands and uses thereof” (The Scripps Research Institute, priority 2017, dated 2022)
# Entries after “also recorded” stand apart in the source; their conditions may differ.
# Columns and labels:
# [1] = test system: proteins in HEK293T cells; test: MS-based mapping of FFF probe-modified peptides (isoTOP, sites of labeling); format: binding, human
# Procedure: (§1) Preparation and analysis was adapted from methods previously reported. In brief, for global mapping of fragment probe-modified peptides, separate 10 cm dishes of cells were treated with probes (200-250 μM) in 3.0 mL of DMEM (serum-free) and (if applicable) competitor ligands, proteomes harvested and subjected to click chemistry conditions with either light or heavy isotopically labeled biotin-TEV-azide (10 μL of 5 mM stocks in DMSO, final concentration=100 μM), TCEP, ligand and CuSO4 as detailed above. The samples were allowed to react for 1 h at which point the samples were centrifuged (16,000 g, 5 min, 4° C.). The resulting pellets were sonicated in ice-cold methanol (500 μL) and the resuspended light- and heavy-labeled samples were then combined and centrifuged (16,000 g, 5 min, 4° C.). The pellets were then solubilized in PBS containing 1.2% SDS (1 mL) with sonication and heating (5 min, 95° C.). Samples were transferred to falcon tubes containing DPBS (5 mL), to which a 100 μL of streptavidin-agarose beads slurry was added. After incubation, the beads (3 hr) were pelleted by centrifugation (1,400 g, 3 min) and were washed (2×10 mL PBS and 2×10 mL water). The beads were transferred to eppendorf tubes with 1 mL DPBS, centrifuged (1,400 g, 3 min), and resuspended in PBS containing 6 M urea. To this was added 10 mM DTT (25 μL of a 200 mM stock in water) and the beads were incubated at 65° C. for 15 mins. 20 mM iodoacetamide (25 μL of a 400 mM stock in water) was then added and allowed to react at 37° C. for 30 mins with shaking. The bead mixture was diluted with 900 μL PBS, pelleted by centrifugation (1,400 g, 3 min), and resuspended in 200 μL 2M urea (DPBS) containing trypsin and CaCl2 as described above. The beads were separated from the digest by centrifugation (1,000 g, 1 min), washed (2×1 mL PBS and 2×1 mL water) and then transferred to fresh eppendorfs with 1 mL water. The washed beads were washed once further in 150 μL TEV buffer (50 mM Tris, pH 8, 0.5 mM EDTA, 1 mM DTT) by centrifugation (1,400 g, 3 min) and the resuspended in 150 μL TEV buffer. 5 μL TEV protease (80 μM) was added and the reactions were rotated overnight at 29° C. The TEV digest was separated from the beads by centrifugation (1,400 g, 3 min) and the beads were washed once with water (100 μL). The samples were then acidified to a final concentration of 5% (v/v) formic acid and stored at −80° C. prior to analysis.
# The resulting probe-modified peptides were collected for MS analysis, which was performed as described above with differences in the salt bumps applied in the chromatographic gradients which in this case were 0%, 30%, 60%, 90% and 100% NH4OAc (500 μM). The protein identification searches of the MS data were performed with the following changes applied to identify the peptides modified with the corresponding fragment probe and the cleaved TEV tag. All amino acids were considered as possible residues for modification. To facilitate the computational searches, sets of up to 3 amino acids were searched using ProLuCID and filtered with DTASelect as described above. […] The isoTOP ratios for probe labeled peptides were quantified using the in-house software CIMAGE.
# For each protein in the site-of-labeling dataset, the UniProtKB accession number was used to map and collect relevant structures from the RCSB Protein Data Bank (PDB) fulfilling the following criteria: structures determined by X-ray crystallography, wild-type protein, Homo sapiens as the sole source organism. […] Fpocket 2.0 was used to detect potential binding pockets for the resultant structures with all parameters set at recommended default. Pockets with volume less than 500 Å^3 were removed from output prior to further analysis. Residues surrounding fpocket predicted binding pockets for each protein were collected to determine the number of residues overlapping with isoTOP peptides.
# PTGR2 = PTGR2 (Homo sapiens, UniProt Q8N8N7); test: Mapping and competition of FFF 8-modified tryptic peptides on PTGR2; format: binding; details: near the active site
# PTGR2, sequence (Q8N8N7 whole entry, the tested form may be a part): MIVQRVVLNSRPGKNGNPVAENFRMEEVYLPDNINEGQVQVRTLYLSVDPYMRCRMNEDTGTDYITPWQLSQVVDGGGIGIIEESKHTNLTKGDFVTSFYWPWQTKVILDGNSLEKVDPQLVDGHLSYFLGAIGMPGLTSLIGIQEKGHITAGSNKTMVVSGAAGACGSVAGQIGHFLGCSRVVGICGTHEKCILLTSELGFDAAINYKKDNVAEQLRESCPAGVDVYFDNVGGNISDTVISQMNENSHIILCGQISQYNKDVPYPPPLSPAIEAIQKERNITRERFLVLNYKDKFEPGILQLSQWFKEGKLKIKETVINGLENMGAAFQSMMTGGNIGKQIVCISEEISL
# Procedure: (§2) Preparation and analysis was adapted from methods previously reported. In brief, for global mapping of fragment probe-modified peptides, separate 10 cm dishes of cells were treated with probes (200-250 μM) in 3.0 mL of DMEM (serum-free) and (if applicable) competitor ligands, proteomes harvested and subjected to click chemistry conditions with either light or heavy isotopically labeled biotin-TEV-azide (10 μL of 5 mM stocks in DMSO, final concentration=100 μM), TCEP, ligand and CuSO4 as detailed above. The samples were allowed to react for 1 h at which point the samples were centrifuged (16,000 g, 5 min, 4° C.). The resulting pellets were sonicated in ice-cold methanol (500 μL) and the resuspended light- and heavy-labeled samples were then combined and centrifuged (16,000 g, 5 min, 4° C.). The pellets were then solubilized in PBS containing 1.2% SDS (1 mL) with sonication and heating (5 min, 95° C.). Samples were transferred to falcon tubes containing DPBS (5 mL), to which a 100 μL of streptavidin-agarose beads slurry was added. […]
# (§3) The resulting probe-modified peptides were collected for MS analysis, which was performed as described above with differences in the salt bumps applied in the chromatographic gradients which in this case were 0%, 30%, 60%, 90% and 100% NH4OAc (500 μM). […] The isoTOP ratios for probe labeled peptides were quantified using the in-house software CIMAGE. […]
# α-galactosidase (GLA) = target: T1, α-galactosidase (GLA) (Homo sapiens, UniProt P06280); test: Mapping of FFF probe-modified peptides on α-galactosidase (GLA); format: binding
# T1 construct: endogenous in cells; host or cells: human cells (HEK293T; a subset of probes also in K562)
# T1 sequence (P06280 32-429): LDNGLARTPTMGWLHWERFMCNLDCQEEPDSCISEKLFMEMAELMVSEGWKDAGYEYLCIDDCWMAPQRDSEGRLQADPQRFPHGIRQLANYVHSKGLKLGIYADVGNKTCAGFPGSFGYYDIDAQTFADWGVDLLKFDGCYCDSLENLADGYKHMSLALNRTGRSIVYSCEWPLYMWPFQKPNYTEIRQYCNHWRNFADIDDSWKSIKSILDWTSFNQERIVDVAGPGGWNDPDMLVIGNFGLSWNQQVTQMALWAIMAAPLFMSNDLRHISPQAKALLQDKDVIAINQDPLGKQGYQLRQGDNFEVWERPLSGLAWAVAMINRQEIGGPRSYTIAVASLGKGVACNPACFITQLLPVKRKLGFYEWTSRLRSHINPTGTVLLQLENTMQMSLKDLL
# Procedure: as §1, §3
# cathepsin B (CTSB) = target: T2, cathepsin B (CTSB) (Homo sapiens, UniProt P07858); test: Mapping and competition of FFF probe-modified peptide on cathepsin B (CTSB); format: binding; details: HEK293T cells co-treated with 9 (200 μM)
# T2 construct: endogenous in cells; host or cells: HEK293T
# Procedure: as §2, §3
structure (smiles),measurement,setting,value
"C#CCCC1(CCC(=O)N2CCC(c3ccccc3)CC2)N=N1 [probe 8, 3-(3-(But-3-yn-1-yl)-3H-diazirin-3-yl)-1-(4-phenylpiperidin-1-yl)propan-1-one]",Labeled Peptide of HNRNPA1 Heterogeneous nuclear ribonucleoprotein A1,"[1]; Accession P09651, residues of probe-labeled peptide, family Channels, Transporters, Receptors",233-265
same,Labeled Peptide of HIST1H1C Histone H1.2,"[1]; Accession P16403, residues of probe-labeled peptide, family Transcription factors, Regulators",65-75
same,Labeled Peptide,"[1]; MKI67 (P46013), residues of the probe-labeled peptide",648-659
same,Labeled Peptide,"[1]; protein BAG6 (P46379), residues of probe-labeled peptide",332-344
same,Labeled Peptide,"[1]; protein CCT8 T-complex protein 1 subunit theta (P50990), residues of probe-labeled peptide",441-450
same,Labeled Peptide,"[1]; protein CDC37 Hsp90 co-chaperone Cdc37 (Q16543), residues of probe-labeled peptide",287-307
same,Labeled Peptide,"[1]; protein DHX9 ATP-dependent RNA helicase A (Q08211), residues of probe-labeled peptide",121-141
same,Labeled Peptide,[1]; protein Q14683 SMC1A Structureal maintenance of chromosomes protein 1A,1070-1086
same,Labeled Peptide,"[1]; residues of probe-labeled peptide on UBAP2L Ubiquitin-associated protein 2-like, Accession # Q14157",239-257
same,probe-modified tryptic peptides in PTGR2,PTGR2,aa 55-66; also recorded: aa 261-278
"C#CCCC1(CCC(=O)NCc2ccc3sccc3c2)N=N1 [probe 4, N-(Benzo[b]thiophen-5-ylmethyl)-3-(3-(but-3-yn-1-yl)-3H-diazirin-3-yl)propanamide]",Labeled Peptide of HCCS Cytochrome c-type heme lyase,"[1]; Accession P53701, residues of probe-labeled peptide, family Enzymes",200-210
same,Labeled Peptide,"[1]; HNRNPK Heterogeneous nuclear ribonucleoprotein K, residues of probe-modified peptide",423-433
same,Labeled Peptide,"[1]; IDE Insulin-degrading enzyme, residues of probe-modified peptide",312-324
same,Labeled Peptide,"[1]; NUP93 (Q8N1F7), residues of the probe-labeled peptide",539-545
same,Labeled Peptide,[1]; P07195 LDHB L-lactate,234-244
same,Labeled Peptide,"[1]; P22830 FECH Fen-ochelatase, mitochondrial",254-272
same,Labeled Peptide,"[1]; protein BCAS2 (O75934), residues of probe-labeled peptide",137-151
same,Labeled Peptide,"[1]; protein CPT2 Carnitine O-palmitoyltransferase 2, mitochondrial (P23786), residues of probe-labeled peptide",478-495
same,Labeled Peptide,"[1]; protein EMD Emerin (P50402), residues of probe-labeled peptide",212-221
same,Labeled Peptide,"[1]; protein FECH Ferrochelatase, mitochondrial (P22830), residues of probe-labeled peptide",254-272
same,Labeled Peptide,"[1]; protein FECH Ferrochelatase, mitochondrial, residues of probe-labeled peptide",254-272
same,Labeled Peptide,"[1]; protein LDHB L-lactate dehydrogenase B chain, residues of the probe-labeled peptide",234-244
same,Labeled Peptide,"[1]; protein P42166 TMPO Lamina-associated polypeptide 2, isoform alpha",621-637
same,Labeled Peptide,[1]; protein PGRMC2 Membrane-associated progesterone receptor component (O15173),136-149
same,Labeled Peptide,[1]; protein PSMD11 26S proteasome non-ATPase regulatory subunit 11 (O00231),298-304
same,Labeled Peptide,[1]; protein Q14166 TTLL12,254-287
same,Labeled Peptide,"[1]; residues of probe-labeled peptide on TUBB6 Tubulin beta-6 chain, Accession # Q9BUF5",217-241
same,Labeled Peptide of GLA Alpha-galactosidase A,"α-galactosidase (GLA); Accession P06280, residues of probe-labeled peptide, family Enzymes",68-82
same,Labeled Peptide,α-galactosidase (GLA); P06280 GLA Alpha-galactosidase A,68-82
same,Labeled Peptide,"α-galactosidase (GLA); protein GLA Alpha-galactosidase A, residues of probe-labeled peptide",68-82
"CC(NC(=O)[C@H](Cc1ccccc1)NC(=O)OCc1ccccc1)C(=O)CF (stereo partly shown) [Z-FA-FMK, reference compound]",blockade of probe 9 interaction with CTSB,cathepsin B (CTSB),blocked
